Consider 16 compounds from PubChem BioAssay AID276 (DTP/NCI, 2004).

“And” between values parts separate entries of the source, which are not always exact repeats. Identical values can stand only once. Inconclusive results and toxic doses are left out.

For the experiment, the system named is B6C3F1 mice, Lewis lung carcinoma iv, survival T/C. In words: NCI In Vivo Anticancer Drug Screen. Data for tumor model Lewis Lung Carcinoma (intravenous) in B6C3F1 mice. The note with it: endpoint: median survival time, schedule: Q01DX009 (ip), higher = longer survival. The gist of the method: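 Read-out is survival, expressed as the treated-group measurement over the vehicle control-group measurement. Animals bore a transplantable tumor and were given compound.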

[1] abbreviates: dose: 3.12 mg/kg/injection, vehicle: saline with Tween-80.
The mark [2] stands for this setting: dose: 6.25 mg/kg/injection, vehicle: saline with Tween-80.
Setting [3] is: dose: 12.5 mg/kg/injection, vehicle: saline with Tween-80.
Where [4] appears, read: dose: 25.0 mg/kg/injection, vehicle: saline with Tween-80.
Setting [5] is: dose: 50.0 mg/kg/injection, vehicle: saline with Tween-80.
Setting [6] is: dose: 100.0 mg/kg/injection, vehicle: saline.
Where [7] appears, read: dose: 200.0 mg/kg/injection, vehicle: saline.
Where [8] appears, read: dose: 100.0 mg/kg/injection, vehicle: saline with Tween-80.
Setting [9] is: dose: 200.0 mg/kg/injection, vehicle: saline with Tween-80.

Take `C[n+]1c(-c2cccc(OCCOCCOc3cccc(-c4c5cc(N)ccc5c5ccc(N)cc5[n+]4C)c3)c2)c2cc(N)ccc2c2ccc(N)cc21`: the T/C runs as follows: (dose: 0.5 mg/kg/injection, vehicle: water) 105 % of control; (dose: 0.75 mg/kg/injection, vehicle: saline with Tween-80) 103 % of control; (dose: 1.0 mg/kg/injection, vehicle: water) 96 % of control; (dose: 1.5 mg/kg/injection, vehicle: saline with Tween-80) 102 % of control; (dose: 2.0 mg/kg/injection, vehicle: water) 100 % of control; (dose: 3.0 mg/kg/injection, vehicle: saline with Tween-80) 99 % of control. The T/C was 100 % of control and 105 % of control (dose: 4.0 mg/kg/injection, vehicle: water); 108 % of control (dose: 6.0 mg/kg/injection, vehicle: saline with Tween-80); 105 % of control and 110 % of control (dose: 8.0 mg/kg/injection, vehicle: water); 116 % of control (dose: 16.0 mg/kg/injection, vehicle: water).

As for `COc1cccc2c1C(=O)c1c(O)c3c(c(O)c1C2=O)CC(O)(/C(C)=N/NC(=O)CCCCC(=O)N/N=C(\C)C1(O)Cc2c(O)c4c(c(O)c2C(OC2CC(N)C(O)C(C)O2)C1)C(=O)c1c(OC)cccc1C4=O)CC3OC1CC(N)C(O)C(C)O1` (stereo not drawn), the T/C runs as follows: (dose: 1.5 mg/kg/injection, vehicle: water) 120 % of control; (dose: 3.0 mg/kg/injection, vehicle: water) 109 % of control; (dose: 6.25 mg/kg/injection, vehicle: water) 117 % of control.

`COc1ccc(S(=O)(=O)N=N/C=C2\C=CC=CN2O)cc1OC`: the T/C is 92 % of control under setting [1]; 100 % of control under setting [2]; 98 % of control under setting [3]; 93 % of control under setting [4]; 106 % of control under setting [5].

`c1cc[c]([Sn]([NH]c2ncnc3[nH]cnc23)([NH]c2ncnc3[nH]cnc23)[c]2ccccc2)cc1`: the T/C (dose: 12.5 mg/kg/injection, vehicle: saline) was 103 % of control; the T/C (dose: 25.0 mg/kg/injection, vehicle: saline) is 95 % of control; the T/C (dose: 50.0 mg/kg/injection, vehicle: saline) is 106 % of control; the T/C under setting [6] is 107 % of control; the T/C under setting [7] is 98 % of control.

For `CC(=O)OC1(C)CC(C)C(=O)C(C(O)CC2CC(=O)NC(=O)C2)C1` (stereo not drawn), the T/C by setting is: (dose: 15.6 micrograms/kg/injection, vehicle: saline) 96 % of control; (dose: 31.3 micrograms/kg/injection, vehicle: saline) 95 % of control; (dose: 62.5 micrograms/kg/injection, vehicle: saline) 100 % of control; (dose: 125.0 micrograms/kg/injection, vehicle: saline) 100 % of control; (dose: 250.0 micrograms/kg/injection, vehicle: saline) 107 % of control.

Regarding `COc1ccc2c(c1)CCn1c(C)c(COC(=O)NC(C)C)c(COC(=O)NC(C)C)c1-2`, the T/C was 102 % of control (dose: 3.12 mg/kg/injection, vehicle: distilled water + Tween-80); 99 % of control (dose: 6.25 mg/kg/injection, vehicle: distilled water + Tween-80); 87 % of control (dose: 12.5 mg/kg/injection, vehicle: distilled water + Tween-80).

Turning to `CC1(C)CC1(Br)Br`, the T/C is, setting by setting: under setting [2], 99 % of control; under setting [3], 96 % of control; under setting [4], 99 % of control; under setting [5], 100 % of control; under setting [8], 115 % of control; under setting [9], 100 % of control.

`Cc1cc(NCCN(C(C)C)C(C)C)nc(/N=C(\N)Nc2ccc(Cl)c(C(F)(F)F)c2)n1`: the T/C by setting is: (dose: 1.25 mg/kg/injection, vehicle: Klucel (hydroxypropylcellulose) (HPC)) 93 % of control and 95 % of control; (dose: 2.5 mg/kg/injection, vehicle: Klucel (hydroxypropylcellulose) (HPC)) 95 % of control and 100 % of control; (dose: 5.0 mg/kg/injection, vehicle: Klucel (hydroxypropylcellulose) (HPC)) 94 % of control and 96 % of control; (dose: 10.0 mg/kg/injection, vehicle: Klucel (hydroxypropylcellulose) (HPC)) 97 % of control and 117 % of control; (dose: 20.0 mg/kg/injection, vehicle: Klucel (hydroxypropylcellulose) (HPC)) 94 % of control and 112 % of control.

Consider `CNC=O`, for which the T/C runs as follows: under setting [6], 106 % of control; under setting [7], 110 % of control.

Take `O=C(Nc1cccc(Cl)c1)ON1C(=O)C2C(C1=O)C1(Cl)C(Cl)C(Cl)C2(Cl)C1(Cl)Cl` (stereo not drawn): the T/C under setting [4] was 95 % of control, the T/C under setting [5] was 97 % of control and the T/C under setting [8] is 87 % of control.

As for `CNC(=O)Oc1ccc[nH]c1=O`, the T/C reads like this: (dose: 16.0 mg/kg/injection, vehicle: saline with Tween-80) 101 % of control; (dose: 32.0 mg/kg/injection, vehicle: saline with Tween-80) 103 % of control; (dose: 64.0 mg/kg/injection, vehicle: saline with Tween-80) 104 % of control; (dose: 128.0 mg/kg/injection, vehicle: saline with Tween-80) 90 % of control; (dose: 256.0 mg/kg/injection, vehicle: saline with Tween-80) 94 % of control.

With `Cc1c(N)nc([C@H](CC(N)=O)NC[C@H](N)C(N)=O)nc1C(=O)N[C@H](C(=O)N[C@H](C)[C@@H](O)CC(=O)N[C@H](C(=O)NC(O[C@@H]1O[C@@H](C)[C@@H](N)[C@@H](O)[C@H]1O)C(O)c1nc(-c2nc(C(=O)NCCCCN)cs2)cs1)[C@@H](C)O)[C@@H](O[C@@H]1O[C@@H](CO)[C@@H](O)[C@H](O)[C@@H]1O[C@H]1O[C@H](CO)[C@@H](O)[C@H](OC(N)=O)[C@@H]1O)c1c[nH]cn1` (stereo partly drawn), the T/C is, setting by setting: (dose: 2.0 mg/kg/injection, vehicle: saline) 123 % of control; (dose: 8.0 mg/kg/injection, vehicle: saline) 176 % of control.

In the case of `COc1cc2cc[n+](C)c(Cc3ccccc3)c2cc1OC`, the T/C is, setting by setting: (dose: 3.13 mg/kg/injection, vehicle: saline with Tween-80) 112 % of control; under setting [2], 120 % of control; under setting [3], 96 % of control; under setting [4], 99 % of control; under setting [5], 91 % of control.

On to `C[C@H](N)C(=O)N[C@@H]1[C@H]2C(=C(O)C[C@@H](O)[C@@H]2O)C(=O)O[C@]1(C)C(Cl)Cl`, for which the T/C is, setting by setting: (dose: 0.19 mg/kg/injection, vehicle: Klucel (hydroxypropylcellulose) (HPC)) 97 % of control; (dose: 0.38 mg/kg/injection, vehicle: Klucel (hydroxypropylcellulose) (HPC)) 101 % of control; (dose: 0.75 mg/kg/injection, vehicle: Klucel (hydroxypropylcellulose) (HPC)) 111 % of control; (dose: 1.5 mg/kg/injection, vehicle: Klucel (hydroxypropylcellulose) (HPC)) 100 % of control.

For the compound `CC(Cc1ccc(O)c(O)c1)C(C)Cc1ccc(O)c(O)c1` (stereo not drawn), the T/C was 100 % of control (dose: 12.0 mg/kg/injection, vehicle: saline with Tween-80); 113 % of control under setting [4]; 103 % of control under setting [5]; 94 % of control under setting [8]; 104 % of control under setting [9]; 100 % of control (dose: 400.0 mg/kg/injection, vehicle: saline with Tween-80).

`Cn1c2ccccc2c2ccc3c(c21)C(=O)C=CC3=O`: the T/C by setting is: (dose: 1.56 mg/kg/injection, vehicle: saline with Tween-80) 99 % of control; under setting [1], 106 % of control; under setting [2], 107 % of control; under setting [3], 93 % of control and 101 % of control.
